Data reported in PubChem BioAssay (NCI).
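Here, GI50 denotes the concentration required for 50% inhibition of growth. The concentration for full growth arrest is given as TGI.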

Experiments:
Assay in all cases: growth of human tumour cells (NCI), 384-well format
786-0 renal = system: 786-0 renal
ACHN renal = system: ACHN renal
CCRF-CEM leukemia = system: CCRF-CEM leukemia
DU-145 prostate = system: DU-145 prostate
HS 578T breast = system: HS 578T breast
HT29 colon = system: HT29 colon
MDA-MB-231 breast = system: MDA-MB-231 breast
OVCAR-3 ovarian = system: OVCAR-3 ovarian
OVCAR-4 ovarian = system: OVCAR-4 ovarian
OVCAR-5 ovarian = system: OVCAR-5 ovarian
RPMI-8226 leukemia = system: RPMI-8226 leukemia
SK-MEL-2 melanoma = system: SK-MEL-2 melanoma
UACC-257 melanoma = system: UACC-257 melanoma

Compound: NC(=O)[C@@H](CC1CC1)[C@@H](CCC(F)(F)F)C(=O)N[C@H]1N=C(c2ccccc2)c2cccc(F)c2NC1=O
- GI50 (786-0 renal): 20.3 µM
- TGI (786-0 renal): > 67.6 µM
- GI50 (ACHN renal): 20.8 µM
- TGI (ACHN renal): > 64.5 µM
- GI50 (CCRF-CEM leukemia): 9.79 µM
- TGI (CCRF-CEM leukemia): > 64.3 µM
- GI50 (DU-145 prostate): 23.7 µM
- TGI (DU-145 prostate): 66.6 µM
- GI50 (HS 578T breast): 11.3 µM
- TGI (HS 578T breast): 25.5 µM
- GI50 (HT29 colon): 32.9 µM
- TGI (HT29 colon): 98 µM
- GI50 (MDA-MB-231 breast): 14.4 µM
- TGI (MDA-MB-231 breast): 28 µM
- GI50 (OVCAR-3 ovarian): 14.4 µM
- TGI (OVCAR-3 ovarian): 29 µM
- GI50 (OVCAR-4 ovarian): 13.3 µM
- TGI (OVCAR-4 ovarian): 28.1 µM
- GI50 (OVCAR-5 ovarian): 18.5 µM
- TGI (OVCAR-5 ovarian): 47.1 µM
- GI50 (RPMI-8226 leukemia): 16.2 µM
- TGI (RPMI-8226 leukemia): 36.2 µM
- GI50 (SK-MEL-2 melanoma): 19.7 µM
- TGI (SK-MEL-2 melanoma): 35.2 µM
- GI50 (UACC-257 melanoma): 5.76 µM
- TGI (UACC-257 melanoma): 24.6 µM
